The results in this text go back to patent US8486885B2, “β-arrestin effectors and compositions and methods of use thereof” (Trevena, Inc., priority 2008, dated 2013).

Non-standard residues stand in square brackets, D forms with d. Residues, ends and D or L forms follow the SMILES beside them. Sar = CNCC(=O)O

Holding throughout (format): cell-based
The target of assay [1] is T1, rat angiotensin 2 type 1 receptor (rat AT1aR) (Rattus norvegicus, UniProt P25095).
T1 construct: expressed in transfected cells
T1 sequence (P25095 1-359): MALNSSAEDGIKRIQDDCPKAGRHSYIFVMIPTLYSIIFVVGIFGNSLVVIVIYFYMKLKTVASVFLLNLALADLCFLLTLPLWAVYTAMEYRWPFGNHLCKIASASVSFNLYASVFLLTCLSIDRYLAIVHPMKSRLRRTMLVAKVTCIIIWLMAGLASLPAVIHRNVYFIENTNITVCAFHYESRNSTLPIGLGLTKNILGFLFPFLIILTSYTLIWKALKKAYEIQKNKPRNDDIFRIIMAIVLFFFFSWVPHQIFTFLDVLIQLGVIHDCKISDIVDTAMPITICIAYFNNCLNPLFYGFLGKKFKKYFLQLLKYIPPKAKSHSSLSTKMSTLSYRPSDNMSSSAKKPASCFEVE
Put plainly: IP1 accumulation assay (IP-One Tb), rat AT1aR. Particulars: cells expressing rat AT1aR. How it is done: (§1) A secondary measure of G protein coupling efficacy was also performed. IP3 is generated by activation of phospholipase C by Gα-q. IP3 is degraded to IP1, which can be forced to accumulate in cells by blocking degradation with lithium chloride. Thus we measured accumulation of IP1 to determine ligand efficacy for G protein activation.
(§2) IP1 accumulation generated by human and rat angiotensin 2 type 1 receptor (human AT1R and rat AT1aR, respectively) was measured with IP-One Tb kits purchased from Cisbio and used per the manufacturer's instructions. Clonal stably transfected cell lines expressing human AT1TR or rat AT1aR were used for all experiments.
(§3) For assays, 4,000 cells were seeded per well in 384-well small-volume microplates in volumes of 20 uL and allowed to grow overnight at 37° C. in 5% CO2. Cell growth media was then replaced with stimulation buffer supplied by Cisbio containing 50 mM lithium chloride. Peptides TRV-120,001 through TRV-120,035 were dissolved in deionized water to a concentration of 1 mM. For agonist detection, peptides were then further diluted in stimulation buffer to add peptide to the cells to reach final concentrations ranging from 10 uM to 1 pM. […] Following addition of peptides, cells were incubated at 37° C. in 5% CO2 for 30 minutes and then lysed with detection reagents added per manufacturer's instructions.

Assay [2] addresses rat angiotensin 2 type 1 receptor (rat AT1aR) (Rattus norvegicus, UniProt P25095). Put plainly: PathHunter β-arrestin-2 recruitment assay, rat AT1aR. Particulars: PathHunter β-arrestin HEK293 cells; for EC50: read-out: rat AT1aR b-arrestin2 EC50. How it is done: (§4) The proximal event in β-arrestin function mediated by GPCRs is recruitment to receptors following ligand binding and receptor phosphorylation by GRK's. Thus, the measure of β-arrestin recruitment was used to determine ligand efficacy for β-arrestin function.
(§5) B-arrestin-2 recruitment to the human and rat angiotensin 2 type 1 receptor (human AT1R and rat AT1aR, respectively) was measured with the PathHunter™ β-arrestin assay (DiscoveRx Corporation, Fremont Calif.). Cells, plasmid(s), and detection reagent(s) were purchased from DiscoveRx, and assays were performed per manufacturer's instructions. Human AT1R and rat AT1aR were cloned into the pCMV-ProLink vector, verified by sequencing, and transfected into PathHunter β-arrestin HEK293 cells. Stably transfected clonal cell lines were selected with Hygromycin and G418. These clonal cell lines were used for all experiments.
(§6) For assays, 25,000 cells were seeded per well in 96-well microplates in volumes of 90 μL and allowed to grow overnight at 37° C. in 5% CO2. Peptides of the invention were dissolved in deionized water to a concentration of 1 mM. Peptides were then further diluted in assay buffer (Hank's balanced salt solution with 20 mM HEPES) to add peptide to the cells to reach final concentrations ranging from 10 μM to 1 pM. Cells were then incubated for 60 minutes at 37° C. in 5% CO2, followed by addition of 50 μL of PathHunter Detection Reagent to each well. The microplates were then incubated at room temperature for 60 minutes, and then luminescence was measured using a NOVOstar microplate reader purchased from BMG Labtech. B-arrestin-2 recruitment to receptors was measured as relative luminescence intensity expressed in arbitrary units.
In general terms: Arrestin recruitment assays detect the binding of arrestin to an activated receptor.
Target sequence in this assay (P32121 whole entry partner, one chain of several): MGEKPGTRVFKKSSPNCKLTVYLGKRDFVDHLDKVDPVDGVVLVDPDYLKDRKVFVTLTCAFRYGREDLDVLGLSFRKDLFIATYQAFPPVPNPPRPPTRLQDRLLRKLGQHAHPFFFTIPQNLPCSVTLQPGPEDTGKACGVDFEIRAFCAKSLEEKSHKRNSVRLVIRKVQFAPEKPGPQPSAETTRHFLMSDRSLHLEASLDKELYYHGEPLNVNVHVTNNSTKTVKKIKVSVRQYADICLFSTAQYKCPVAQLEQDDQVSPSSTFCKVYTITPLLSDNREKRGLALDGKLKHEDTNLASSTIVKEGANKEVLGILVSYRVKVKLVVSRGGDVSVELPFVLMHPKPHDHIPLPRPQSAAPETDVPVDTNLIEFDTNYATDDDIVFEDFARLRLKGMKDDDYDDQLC

The target in assay [3] is T2, human angiotensin 2 type 1 receptor (human AT1R) (Homo sapiens, UniProt P30556).
T2 construct: expressed in transfected cells
T2 sequence (P30556 1-359): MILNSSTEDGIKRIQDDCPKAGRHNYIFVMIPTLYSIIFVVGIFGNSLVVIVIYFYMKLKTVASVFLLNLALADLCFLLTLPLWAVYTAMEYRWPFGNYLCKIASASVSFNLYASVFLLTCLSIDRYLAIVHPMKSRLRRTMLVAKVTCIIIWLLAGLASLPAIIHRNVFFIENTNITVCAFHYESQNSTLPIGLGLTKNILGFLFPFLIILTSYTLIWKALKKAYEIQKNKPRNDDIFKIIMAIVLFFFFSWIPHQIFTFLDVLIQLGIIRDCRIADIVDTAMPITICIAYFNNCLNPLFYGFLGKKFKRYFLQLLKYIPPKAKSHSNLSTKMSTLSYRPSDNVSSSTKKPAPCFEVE
Nature of the assay: IP1 accumulation assay (IP-One Tb), human AT1R. Particulars: cells expressing human AT1R. How it is done: as §1, §2, §3

Assay [4] deals with human angiotensin 2 type 1 receptor (human AT1R) (Homo sapiens, UniProt P30556). Nature of the assay: PathHunter β-arrestin-2 recruitment assay, human AT1R. Particulars: PathHunter β-arrestin HEK293 cells; for EC50: read-out: human AT1R b-arrestin2 EC50. How it is done:
as §4, §5, §6
Target sequence in this assay (P32121 whole entry partner, one chain of several): as the sequence (P32121 whole entry partner, one chain of several) above

Regarding `CNCC(=O)N[C@@H](CCCNC(=N)N)C(=O)N[C@H](C(=O)N[C@@H](Cc1ccc(O)cc1)C(=O)N[C@@H](Cc1ccc(O)cc1)C(=O)N[C@@H](Cc1c[nH]cn1)C(=O)N1CCC[C@H]1C(=O)O)C(C)C` [SEQ ID NO:52, Sar-Arg-Val-Tyr-Tyr-His-Pro-OH], the “rat AT1aR IP One Max (%)” value in assay [1] stood at 8.0%. In assay [2], the “rat AT1aR b-arrestin2 Max (%)” value was determined as 83.8%. Besides, the “human AT1R IP One EC50 (M)” value in assay [3] was “inactive”. In assay [4], the “human AT1R b-arrestin2 Max (%)” value turned out to be 45.9% and the EC50 – broadly, the concentration giving half of the maximal effect – came out at 1400 nM.

As for `CNCC(=O)N[C@@H](CCCNC(=N)N)C(=O)N[C@H](C(=O)N[C@@H](Cc1ccc(O)cc1)C(=O)N[C@H](C(=O)N[C@@H](Cc1c[nH]cn1)C(N)=O)C(C)C)C(C)C` [SEQ ID NO:55, Sar-Arg-Val-Tyr-Val-His-NH2] (H-[Sar]RVYVH-NH2; N-terminus assumed), in assay [1], the response was half-maximal at 6.8 nM (EC50) and the “rat AT1aR IP One Max (%)” value worked out at 98.8%. Further, the “rat AT1aR b-arrestin2 Max (%)” value in assay [2] amounted to 95.6%. Moreover, the “human AT1R IP One Max (%)” value in assay [3] turned out to be 97.6%. The “human AT1R b-arrestin2 Max (%)” value in assay [4] came to 92.7%.

Turning to `CC[C@H](C)[C@H](NC(=O)[C@H](Cc1ccccc1)NC(=O)[C@@H](NC(=O)[C@H](CCCNC(=N)N)NC(=O)CNC)C(C)C)C(=O)N[C@@H](Cc1c[nH]cn1)C(=O)N1CCC[C@H]1C(=O)N[C@H](C)C(=O)O` [SEQ ID NO:48, Sar-Arg-Val-Phe-Ile-His-Pro-D-Ala-OH], in assay [1], the EC50 came to 200 nM and the “rat AT1aR IP One Max (%)” value was found to be 13.9%. The “rat AT1aR b-arrestin2 Max (%)” value in assay [2] was found to be 42.1%. Further, the “human AT1R IP One EC50 (M)” value in assay [3] is “inactive”. Further, the “human AT1R b-arrestin2 Max (%)” value in assay [4] stood at 48.1%.

For the compound `CNCC(=O)N[C@@H](CCCNC(=N)N)C(=O)N[C@H](C(=O)N[C@@H](Cc1ccc(O)cc1)C(=O)N[C@H](C)C(=O)N[C@@H](Cc1c[nH]cn1)C(=O)N1CCC[C@H]1C(N)=O)C(C)C` [SEQ ID NO:53, Sar-Arg-Val-Tyr-D-Ala-His-Pro-NH2], the “rat AT1aR IP One EC50 (M)” value in assay [1] is recorded as “Inactive”. Also, the “rat AT1aR b-arrestin2 Max (%)” value in assay [2] is given as 12.2%. Besides, in assay [3], the “human AT1R IP One EC50 (M)” value is “inactive”. Further, in assay [4], the “human AT1R b-arrestin2 Max (%)” value is 33.6% and the half-maximal effective concentration (EC50) came to 1600 nM.

Consider `CNCC(=O)N[C@@H](CCCNC(=N)N)C(=O)N[C@H](C(=O)N[C@@H](Cc1ccc(O)cc1)C(=O)N[C@H](C(=O)N[C@@H](Cc1c[nH]cn1)C(=O)N1CCC[C@H]1C(=O)O)C(C)C)C(C)C` [SEQ ID NO:54, Sar-Arg-Val-Tyr-Val-His-Pro-OH], for which the “rat AT1aR IP One EC50 (M)” value in assay [1] is listed as “Inactive”. For the same compound, the “rat AT1aR b-arrestin2 Max (%)” value in assay [2] was 83.0%. Besides, the “human AT1R IP One EC50 (M)” value in assay [3] was “inactive”. For the same compound, the “human AT1R b-arrestin2 Max (%)” value in assay [4] is 58.6%.

Take `CC[C@H](C)[C@H](NC(=O)[C@H](Cc1ccc(O)cc1)NC(=O)[C@@H](NC(=O)[C@H](CCCCN)NC(=O)CNC)C(C)C)C(=O)N[C@@H](Cc1c[nH]cn1)C(=O)N1CCC[C@H]1C(=O)N[C@H](C)C(=O)O` [SEQ ID NO:49, Sar-Lys-Val-Tyr-Ile-His-Pro-D-Ala-OH]: the “rat AT1aR IP One EC50 (M)” value in assay [1] is recorded as “Inactive”. In assay [2], the “rat AT1aR b-arrestin2 Max (%)” value is listed as 52.9% and the EC50 was found to be 630 nM. In addition, the “human AT1R IP One EC50 (M)” value in assay [3] is “inactive”. In assay [4], the “human AT1R b-arrestin2 Max (%)” value came to 72.7% and the EC50 was 1000 nM.

For `CC[C@H](C)[C@H](NC(=O)[C@H](Cc1ccc(O)cc1)NC(=O)[C@@H](NC(=O)[C@H](CCCNC(=N)N)NC(=O)[C@@H](C)NC)C(C)C)C(=O)N[C@@H](Cc1c[nH]cn1)C(=O)N1CCC[C@H]1C(=O)N[C@@H](C)C(=O)O` [SEQ ID NO:47], in assay [1], the “rat AT1aR IP One EC50 (M)” value is given as “Inactive”. In assay [2], the “rat AT1aR b-arrestin2 Max (%)” value is given as 72.2% and the half-maximal effective concentration (EC50) worked out at 2100 nM. Further, the “human AT1R b-arrestin2 Max (%)” value in assay [4] was 80.5%.
